biological target: human PD-L1 / Human PD-1 (Homo sapiens (Human), UniProt Q9NZQ7); test: Enzyme-Linked Immunosorbent Assay (ELISA), PD-1/PD-L1 binding; settings: Table 2; plate-coated human PD-L1, biotinylated human PD-1; read-out: ELISA IC50
In short: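 Human PD-L1 coated at 1 μg/mL overnight at 4° C; samples diluted 1:5 and incubated with human PD-1 and biotin (0.3 μg/mL) for 1 h at 37° C. Bound PD-1 detected with streptavidin-HRP and TMB (20 min, 37° C), acid-stopped, absorbance at 450 nm.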

Sequence of human PD-L1 / Human PD-1 (Q9NZQ7 19-239): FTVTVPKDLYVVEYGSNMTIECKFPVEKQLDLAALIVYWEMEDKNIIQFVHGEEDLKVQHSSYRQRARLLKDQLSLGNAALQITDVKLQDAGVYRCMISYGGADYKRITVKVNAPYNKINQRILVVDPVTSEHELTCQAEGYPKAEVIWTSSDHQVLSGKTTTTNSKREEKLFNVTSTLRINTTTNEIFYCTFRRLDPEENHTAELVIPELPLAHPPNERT

SMILES	IC50 [nM]
C[C@@H](O)[C@H](NCc1cc(Cl)c(O[C@H]2CCc3c(-c4ccccc4F)cccc32)cc1-c1cncc(C#N)c1)C(=O)O [Example 2.126]	100 to 500
COc1cccc(-c2cccc3c2CCC3CCOc2cc(OCc3cncc(C#N)c3)c(CN3CC(O)C3)cc2Cl)c1F (stereo not shown) [Example 2.088]	500 to 20000
COc1cccc(-c2cccc3c2CCC3Oc2cc(OCc3cncc(C#N)c3)c(CNCCC(N)=O)cc2Cl)c1F (stereo not shown) [Example 2.080]	100 to 500

Results, then the compound that gave them:

IC50 [nM]	SMILES
100 to 500	C[C@@H](O)[C@H](NCc1cc(Cl)c(O[C@H]2CCc3c(-c4ccccc4F)cccc32)cc1OCc1cccnn1)C(=O)O [Example 2.133]
< 100	N#Cc1cncc(COc2cc(O[C@H]3CCc4c(-c5ccc6c(c5)OCCO6)cccc43)c(Cl)cc2CN2CC(O)C2)c1 [Example 2.050]
< 100	COc1cccc(-c2cccc3c2CC[C@@H]3Oc2cc(OCc3cncc(C#N)c3)c(CN3CC(O)C(C(=O)O)C3)cc2Cl)c1F (stereo partly shown) [Example 2.064]

same assay, conditions: Table 3; plate-coated human PD-L1, biotinylated human PD-1; read-out: ELISA IC50

IC50 [nM]	SMILES
< 100	N#Cc1cncc(COc2cc(O[C@H]3CCc4c(C5=CCCCC5)cccc43)c(Cl)cc2CN[C@@H](CO)C(=O)O)c1 [Example 3.117]
